This is an account of results in patent US10688093B2, “Methods, compositions, and uses of novel Fyn kinase inhibitors” (priority 2015, dated 2020).

Assay [1] has as its target full-length recombinant human FYN A (Homo sapiens (Human), UniProt P06241). The assay is described as follows: ADP-Glo Kinase Assay of FYN kinase inhibition. It is filed as biochemical. The following applies: primary screen, initial compounds. The method in brief: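 ADP-Glo read-out of peptide phosphorylation after 90 min RT with 12.5 pmol ATP and 100 pg 12-mer substrate. Enzyme was N-GST full-length human FYN A from insect cells, 3 pg, pre-incubated 30 min with compound, 10 points from 10 μM top, 3-fold steps; IC50 from curve.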
A general note: ADP-Glo first removes unused ATP, then detects ADP through luciferase.

The conditions of assay [2]: cited from earlier work.

full-length recombinant human FYN A, sequence (P06241 whole entry): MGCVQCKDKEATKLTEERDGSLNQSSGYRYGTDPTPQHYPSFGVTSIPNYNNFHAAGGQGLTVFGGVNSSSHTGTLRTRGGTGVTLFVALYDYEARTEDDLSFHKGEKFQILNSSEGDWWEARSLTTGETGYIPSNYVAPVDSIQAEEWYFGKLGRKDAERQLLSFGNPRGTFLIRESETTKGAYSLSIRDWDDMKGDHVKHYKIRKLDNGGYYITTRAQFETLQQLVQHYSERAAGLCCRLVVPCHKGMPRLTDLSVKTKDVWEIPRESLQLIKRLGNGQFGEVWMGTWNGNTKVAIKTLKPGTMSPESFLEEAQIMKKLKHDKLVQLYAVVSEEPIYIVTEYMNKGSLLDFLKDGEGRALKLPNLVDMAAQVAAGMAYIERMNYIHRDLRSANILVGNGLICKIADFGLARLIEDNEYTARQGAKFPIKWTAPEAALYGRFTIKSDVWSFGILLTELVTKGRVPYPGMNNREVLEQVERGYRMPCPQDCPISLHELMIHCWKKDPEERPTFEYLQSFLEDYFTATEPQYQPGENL

In the case of `COC(=O)c1c(N)n(-c2cccc(O)c2)c2nc3ccccc3nc12` [Compound 600, methyl 2-amino-1-(3-hydroxy-phenyl)pyrrolo [3,2-b]quinoxaline-3-carboxylate], in assay [1], the IC50 (commonly the concentration at which inhibition is half-maximal) came out at 2260 nM.

With `CN(C)S(=O)(=O)c1ccc2c(c1)/C(=C/c1cc3c([nH]1)CCCC3)C(=O)N2` [SU6656], the “lipid utilization and energy utilization” value in assay [2] (Fyn knockout strains) is listed as “no increase in either parameter”. Moreover, in assay [2] (treated mice relative to untreated control mice), the fat mass result was “significantly reduced”.
